Reference: patent US8822172B2, “Method of detecting isolevuglandin phospholipid adducts” (Case Western Reserve University, priority 2009, dated 2014)
Read-outs that look alike come from different tables or passages of the source.

Experiments:
[1] = Fe^3+; cited from earlier work
[2] = Cu^2+; cited from earlier work
[3] = Ca2^+; cited from earlier work
hepatic triglycerides = details: short-term model, 2, 4 or 6% ethanol diet for 2 days
Excerpt: (§2) All procedures using animals were approved by the Cleveland Clinic Foundation Institutional Animal Care and Use Committees. Mice were housed in shoe-box cages (2 animals/cage) with microisolator lids. Standard microisolator handling procedures were used throughout the study. […] Mice were then anesthetized, blood samples taken into non-heparinized syringes from the posterior vena cava, livers blanched with saline via the portal vein and then excised. Portions of each liver were then either fixed in formalin or frozen in optimal cutting temperature (OCT) compound (Sakura Finetek U.S.A., Inc., Torrance Calif.) for histology, frozen in RNAlater (Qiagen, Valencia, Calif.) or flash frozen in liquid nitrogen and stored at −80° C. until further analysis. Blood was transferred to heparin-containing tubes for the isolation of plasma. Plasma was then stored at −80° C.
Formalin-fixed tissues were paraffin embedded, sectioned and stained with hematoxylin and eosin. Sections were coded prior to analysis and examined by two independent individuals. For Oil Red O staining, 10 micron sections were cut from frozen OCT samples and affixed to a microscope slide. Slides were then stored at 4° C. until staining. […] Total liver triglycerides were measured using the Triglyceride Reagent Kit from Pointe Scientific Inc. (Lincoln Park, Mich.).

mouse liver [4] = details: chronic ethanol-fed mouse liver (5% wk 4), ELISA and LC/MS
Excerpt: Mice were housed in shoe-box cages (2 animals/cage) with microisolator lids. Standard microisolator handling procedures were used throughout the study. […] Mice were then anesthetized, blood samples taken into non-heparinized syringes from the posterior vena cava, livers blanched with saline via the portal vein and then excised. Portions of each liver were then either fixed in formalin or frozen in optimal cutting temperature (OCT) compound (Sakura Finetek U.S.A., Inc., Torrance Calif.) for histology, frozen in RNAlater (Qiagen, Valencia, Calif.) or flash frozen in liquid nitrogen and stored at −80° C. until further analysis. Blood was transferred to heparin-containing tubes for the isolation of plasma. Plasma was then stored at −80° C.
Liver homogenates were prepared as described except that 50 μM butylated hydroxytoluene (BHT) and 100 μM diethylenetriamine pentaacetic acid (DTPA) were added to the buffer to prevent aerial oxidation of lipids during homogenization. 50 μg of protein was used in the ELISA.

CYP2E1 = details: chronic ethanol feeding, maximum at 5% wk 2
Excerpt: All procedures using animals were approved by the Cleveland Clinic Foundation Institutional Animal Care and Use Committees. Mice were housed in shoe-box cages (2 animals/cage) with microisolator lids. Standard microisolator handling procedures were used throughout the study. […] Mice were then anesthetized, blood samples taken into non-heparinized syringes from the posterior vena cava, livers blanched with saline via the portal vein and then excised. Portions of each liver were then either fixed in formalin or frozen in optimal cutting temperature (OCT) compound (Sakura Finetek U.S.A., Inc., Torrance Calif.) for histology, frozen in RNAlater (Qiagen, Valencia, Calif.) or flash frozen in liquid nitrogen and stored at −80° C. until further analysis. […]
0.5-1.0 g of frozen liver tissue was homogenized in 10 ml/g tissue in lysis buffer (50 mM Tris-HCl, pH7.4, 1% NP-40, 0.25% Na-deoxycholate, 150 mM NaCl, 1 mM EDTA with added protease inhibitors Complete™ (Roche Diagnostics, Mannheim, Germany), 17.5 μg/ml aprotinin, 5 μg/ml bestatin, 10 μg/ml leupeptin, 1 mg/ml bacitracin, and 20 μg/ml E64) and phosphatase inhibitors (1 mM vanadate and 10 mM Na pyrophosphate)) using 15 strokes in a glass on glass homogenizer (loose pestle). […] Protein concentrations were measured. […] Bound antibody was detected by chemiluminescence. Immunoreactive protein quantity was assessed by scanning densitometry.

TNF-α = details: long-term ethanol feeding; early peak at 2% d2, later peak at 5% wk 4
Excerpt: (§1) All procedures using animals were approved by the Cleveland Clinic Foundation Institutional Animal Care and Use Committees. Mice were housed in shoe-box cages (2 animals/cage) with microisolator lids. Standard microisolator handling procedures were used throughout the study. Mice were randomized into ethanol-fed and pair-fed groups and then adapted to control liquid diet for 2 days. The ethanol-fed group was allowed free access to ethanol containing diet with increasing concentrations of ethanol: 1% (vol/vol) and 2% each for 2 days, then 4% ethanol for 7 d, and finally 5% ethanol for a further 4 weeks. For the dose-response experiment, mice were allowed free access to 1% ethanol for 2 days and then 2%, 4% or 6% ethanol for a further 2 days. Control mice were pair-fed diets which iso-calorically substituted maltose dextrins for ethanol over the entire feeding period. Mice were then anesthetized, blood samples taken into non-heparinized syringes from the posterior vena cava, livers blanched with saline via the portal vein and then excised. Portions of each liver were then either fixed in formalin or frozen in optimal cutting temperature (OCT) compound (Sakura Finetek U.S.A., Inc., Torrance Calif.) for histology, frozen in RNAlater (Qiagen, Valencia, Calif.) or flash frozen in liquid nitrogen and stored at −80° C. until further analysis. […]

mouse liver [5] = details: short-term model of ethanol exposure, 2, 4 or 6% for 2 days
Excerpt: as §1

mouse liver [6] = details: chronic ethanol-fed vs pair-fed mice, P=0.00021
Method: The tissue was homogenized manually using a Teflon-coated stainless steel pestle. After homogenization, the resulting mixture was placed in a 4° C. freezer for 30 min to maximize the lipid extraction efficiency. An aqueous solution of sodium chloride (1.5%, w/w, 1/4 the volume of the organic extract) was added. The resulting mixture was centrifuged at 3000 rpm for 15 min. The lower layer containing the lipids was carefully withdrawn with a polyethylene transfer pipette, making sure to avoid the interface or upper layer. The solvents were then evaporated under a stream of dry argon at room temperature, and the sample was stored under argon at −80° C. before being analyzed using LC-MS/MS.
The resulting mixture was sonicated for 5 min followed by the addition of PLA2 enzyme (50 μl of 10,000 units/ml). […]
Direct infusion MS and LC-MS/MS were performed on a Quattro Ultima triple-quadrupole mass spectrometer (Micromass, Wythenshawe, UK). […] The total ion current was measured in the mass-to-charge ratio (m/z) range of 50-900 at 30 V of cone energy in the negative ion mode with a 3.5-kV electrospray capillary voltage, 60-V cone voltage, 120° C. source temperature, 250° C. desolvation temperature, 65 L/h cone gas flow, and 658 L/h desolvation gas flow. […] All retention times of analytes shown in MRM spectra were recorded relative to the internal standard (iso[4]LGE2-D31-lysoPE-HL, 11.83 min). […]

plasma ALT = details: short-term model, 2, 4 or 6% ethanol diet for 2 days
Excerpt: as §2
Plasma samples were assayed for alanine aminotransferase (ALT) using a commercially available enzymatic assay kit (Diagnostic Chemicals, LTD, Oxford, Conn.) following the manufacturer's instructions.

| Compound | stability constant log K of EDTA complex [1] | stability constant log K of EDTA complex [2] | stability constant log K of EDTA complex [3] | hepatic triglycerides (hepatic triglycerides) | adducts of iso[4]LGE2 in liver compared to pair-fed animals (mouse liver [4]) | hepatic CYP2E1 expression (CYP2E1) | TNF-α in mouse liver (TNF-α) | 4-HNE, LGE2 and iso[4]LGE2-protein adducts in liver (mouse liver [5]) | isoLG-lysoPE-HL liver levels compared to pair-fed mice (mouse liver [6]) | plasma ALT (plasma ALT) |
| --- | --- | --- | --- | --- | --- | --- | --- | --- | --- | --- |
| O=C(O)CN(CCN(CC(=O)O)CC(=O)O)CC(=O)O [EDTA, ethylenediaminetetraacetic acid] | 25.1 | 18.8 | 10.7 |  |  |  |  |  |  |  |
| CCO [ethanol] |  |  |  | increased at 4 and 6% | 2 fold | increased over time | biphasic induction | increased only at 6% ethanol feeding | Twofold higher | increased at 4 and 6% |
